pIC50: −log10 of the molar value. “And” between values parts separate entries of the source, which are not always exact repeats. Identical values can stand only once. Like-named read-outs stand apart in the source and are kept apart here.
Legend:
asexual P. falciparum = assay: Plasmodium growth inhibition assay (SYBR Safe), asexual stages; type: cell-based, Plasmodium falciparum; details: for IC90: read-out: IC90
Procedure: Compounds or solvent controls (DMSO, ethanol, or ethyl acetate) were serially diluted 2-fold across flat-bottom 96-well plates. Complete culture media without compound was used as a negative control. Chloroquine (100-200 nM) {Sigma C6628} was used as a positive control to determine background fluorescence. The parasitaemia of a culture containing predominantly ring stage parasites was counted by Giemsa smear. The parasitaemia was adjusted to 1% by addition of fresh uRBCs, and added to the plate at a final haematocrit of 1%, with 200 μL per well. The plates were incubated at 37° C. under humid microaerophilic conditions. […] Fluorescence was read at 490 nm excitation/520 nm emission on a FLUOstar Optima fluorescence plate reader {BMG Labtech}.
Growth inhibition data were normalised by subtracting background fluorescence from a no-growth control (high drug concentration or time=0 measurement as specified), and expressed as a percentage of the growth in the negative control (media alone or solvent control) either at the indicated timepoint, or to the highest measurement reached during the assay.
P. falciparum asexual parasite assays begun with ring-stage parasites at 1% parasitaemia and 1% haematocrit. 200 nM chloroquine (Sigma C6628) was used as a no-growth control. […] 17]; 8 (2):e54974).
(§1) Growth inhibition data were normalised by subtracting background fluorescence, luminescence, absorbance, or percentage of cells from a no-growth or no-viability control (high drug concentration, no-parasite control, or time=0 measurement as specified), and expressed as a percentage of the growth or cell percentage in the negative control (culture media alone or solvent control) at the indicated timepoint (or to the highest measurement reached during the assay for FIG. 15B).

[1] = test system: P. falciparum gametocytes (stage III-IV); assay: Gametocyte viability assay (MitoTracker, flow cytometry); type: cell-based, Plasmodium falciparum
Description: Gametocyte assays begun eight days post-invasion (Stage III-IV).
as §1

P. berghei liver stages = assay: P. berghei liver stage growth assay (luciferase) in Huh7 cells; type: cell-based, Plasmodium berghei
Procedure: (§2) Huh7 cells were seeded at a density of 10 000 cells per well, or 20 000 per collagen-coated coverslip. […] Uninfected wells served as a control for background luminescence. […] Data are presented as a percentage of the size or parasite number of the solvent control to normalize for differences between experiments. For cell images presented in the figure, images were collected under optimal exposure settings to ensure features were visible. Individual cells were cropped from larger images with Fiji ImageJ, and the brightness was adjusted while ensuring that no fluorescence was removed. No other manipulations were performed.
as §1

[2] = test system: P. berghei liver stage schizonts; assay: P. berghei liver stage parasite size and number (fluorescence microscopy) in Huh7 cells; type: cell-based, Plasmodium berghei; details: for Smaller parasite size (reduction): 48 hours post-infection, vs DMSO
Procedure: as §2

[3] = test system: Toxoplasma gondii tachyzoites; assay: Toxoplasma growth inhibition assay (tdTomato fluorescence); type: cell-based
Procedure: Fluorescent Toxoplasma gondii parasites were inoculated into an optical bottom 96-well plate containing confluent human foreskin fibroblast (HFF) host cells at a density of 2000 parasites/well, with a serial dilution of each compound, or media/DMSO alone. Plates were measured daily with a FluoStar Optima fluorescence plate reader at 540 nm excitation/590 nm emission for seven days, and the background fluorescence from the time 0 reading was subtracted from all other measurements.
Fluorescence was measured daily with a FluoStar Optima fluorescence plate reader for one week, and the background fluorescence from the time 0 reading was subtracted from all other measurements.
as §1

[4] = test system: human hepatoma cells (Huh7); assay: Huh7 hepatoma viability assay (CellTiter-Blue); type: cell-based; details: 48 hours
Procedure: Huh7 hepatoma viability assays were conducted in the same manner as the P. berghei assays, with metabolic capacity (indicating viability) measured by incubation with CellTiter-Blue® (Promega) for 3 hours.

[5] = test system: human foreskin fibroblasts (HFF); assay: HFF growth inhibition assay (SYBR Safe); type: cell-based
Procedure: Cells were incubated with a serial dilution of each compound, or media/DMSO alone. The protein synthesis inhibitor cycloheximide (10 μg/mL) was used as a positive control to determine background fluorescence. Approximately 5000 cells were seeded in each well. […] Plates were transferred to a −18° C. freezer. […] Fluorescence was read at 490 nm excitation/520 nm emission on a FLUOstar Optima fluorescence plate reader.
HFF cell growth inhibition assays began with 5000 cells per well. 10 μg/mL cycloheximide was used as a no-growth control.

[6] = test system: human embryonic kidney cells (HEK293); assay: HEK293 cell viability assay (MTT); type: cell-based; details: 96 hours
Procedure: HEK293 cell viability assays began with 5000 cells per well. 10 μg/mL cycloheximide was used as a no-growth control. Metabolic capacity (indicating viability) was measured by incubation with 0.45 mg/mL methylthiazolyldiphenyl-tetrazolium bromide (MTT; Sigma M2128) for two hours followed by crystal solubilisation in SDS.

[7] = test system: P. falciparum CAM3.II (mutated Kelch-13, resistant); assay: Ring stage survival assay, resistant strain; type: cell-based, Plasmodium falciparum; details: 700 nM for six hours, then 66 hours without drug
Description: (§3) The inventors tested these compounds in a ring stage survival assay, which allows the detection of resistant parasites against this […] drug and is the standard method for investigating resistance to artemisinin and its derivatives (Witkowski B, Menard D, Amaratunga C. Fairhurst R. Ring-stage Survival Assays (RSA) to evaluate the in-vitro and ex-vivo susceptibility of Plasmodium falciparum to artemisinins Procedure. Inst Pasteur du Cambodge—Natl Institutes Heal [Internet]. 2013 Sep. 11 [cited 2022 Jun. 19]; Procedure; available from: https://www.wwarn.org/sites/default/files/INV10-Standard-Operating-Procedure-Ring-Stage-Survival-Assays.pdf). This assay involves a short treatment window against newly-invaded ring stage parasites, followed by removal of drug pressure to mimic the clearance of the drug from plasma. We utilised two parasite strains: an isolate from Cambodia (CAM3.II) with a mutated Kelch-13 conferring resistance, and a genetically modified revertant of this strain (CAM3.IIREV) conferring drug susceptibility (Straimer J, Gnädig N F, Witkowski B, Amaratunga C, Duru V, Ramadani A P, et al. K13-propeller mutations confer artemisinin resistance in Plasmodium falciparum clinical isolates. Science (80-) [Internet]. 2015 Jan. 23 [cited 2022 Jun. 19]; 347(6220):428-31; available from: https://www.science.org/doi/10.1126/science.1260867).
(§4) Following tight synchronisation, CAM3.II and CAM3.IIREV ring stage parasites (0-3 hours post invasion) at 1% parasitaemia and 2% haematocrit were incubated with 700 nM of compounds or solvent-only controls for exactly six hours, before removing the drug, thoroughly washing in RPMI, and returning to culture conditions for a further 66 hours. Some cells were treated with 700 nM artesunate for 72 hours as a no-growth control. DNA replication (indicating growth) was measured at the specified time using SYBR Safe DNA Gel Stain. Microscope slide smears of each condition were stained with 10% v/v Giemsa and examined under a light microscope (1 000× magnification); with ‘viable’ (morphologically normal) and ‘non-viable’ (morphologically aberrant; vacuolated or pyknotic) parasites distinguished according to standard protocol (Witkowski B, Menard D, Amaratunga C, Fairhurst R. Ring-stage Survival Assays (RSA) to evaluate the in-vitro and ex-vivo susceptibility of Plasmodium falciparum to artemisinins Procedure. Inst Pasteur du Cambodge—Natl Institutes Heal [Internet]. 2013 Sep. 11 [cited 2022 Jun. 19]; Procedure. Available from: https://www.wwam.org/sites/default/files/INV10-Standard-Operating-Procedure-Ring-Stage-Survival-Assays.pdf). Images were captured using a Leica ICC50 camera, with a resolution of 76 nm per pixel.

[8] = test system: P. falciparum CAM3.IIREV (susceptible); assay: Ring stage survival assay, susceptible revertant strain; type: cell-based, Plasmodium falciparum; details: 700 nM for six hours, then 66 hours without drug
Description: as §3, §4

[9] = in vivo; cited from earlier work

Q: For `COc1cc(NC(C)CCCNC(=O)CCC(=O)O[C@H]2CC[C@H]3[C@@H]4CC=C5C[C@@H](O)CC[C@]5(C)[C@H]4CC[C@]23C)c2ncccc2c1` (stereo partly drawn) [C-17-prim, 3β-Hydroxyandrost-5-en-17β-yl succinate-primaquine amide], which “Fold lower IC50 than primaquine alone” value (asexual P. falciparum) is on record?
A: The value was about 4 fold.

Q: And the “Fold difference in IC90 vs primaquine” value (asexual P. falciparum; 24 hours)?
A: Its value is about 8 fold.

Q: And the “Hill slope of inhibitory curve” value (asexual P. falciparum; 24 hours)?
A: The value was −4.56.

Q: And the “Hill slope of inhibitory curve” value (asexual P. falciparum; 72 hours)?
A: Its value is −4.20.

Q: And the pIC50 (asexual P. falciparum; Plasmodium falciparum, 24 hours, starting with ring-stage parasites, FIG. 14B, read-out: IC50)?
A: Its pIC50 is 5.51.

Q: And the IC90 (asexual P. falciparum; Plasmodium falciparum, 24 hours)?
A: Its IC90 is 5 µM.

Q: What about the IC90 (asexual P. falciparum; Plasmodium falciparum, 72 hours exposure time) of the same molecule?
A: The IC90 was 4 µM.

Q: What about the “Fold reduction in IC50 compared to primaquine alone” value ([1]; 48 hours) of the same molecule?
A: The value was 9 fold.

Q: What about the pIC50 ([1]; Plasmodium falciparum, 48 h, read-out: IC50, gametocyte viability) of the same molecule?
A: Its pIC50 is 5.16.

Q: And the “Fold reduction in IC50 compared to primaquine alone” value (P. berghei liver stages; 48 hours)?
A: The value was about 15 fold.

Q: What about the pIC50 (P. berghei liver stages; Plasmodium berghei, Huh-7, 48 hours of treatment from sporozoite inoculation, Huh7 cells, FIG. 16A) of the same molecule?
A: The pIC50 was 6.70.

Q: And the “Smaller parasite size (reduction)” value ([2]; 0.3 μM)?
A: The value was 48%.

Q: What about the “Smaller parasite size (reduction)” value ([2]; 3 μM) of the same molecule?
A: Its value is 90%.

Q: And the “Parasite number (per coverslip)” value ([2]; 0.3 or 3 μM, compared to the same concentration of primaquine or DMSO-only control)?
A: The value was “significantly lower”.

Q: And the “Fold lower IC50 than primaquine” value ([3]; 72 hours)?
A: The value was about 3.5 fold.

Q: What about the pIC50 ([3]; Toxoplasma gondii, 72 h, read-out: IC5 against T. gondii) of the same molecule?
A: Its pIC50 is 5.55.

Q: And the “Cell viability over the range of concentrations” value [4]?
A: Its value is over 50%.

Q: And the “Concentration at which cytotoxic effect was detected” value ([4]; effect on cellular integrity / modest cytotoxicity)?
A: Its value is 3 µM.

Q: And the “Concentration with substantial effect on fibroblast growth” value ([5]; 72 hours)?
A: The value was 10 µM.

Q: And the “Maximal inhibition of HFF growth at the range of concentrations tested” value ([5]; 72 hrs)?
A: The value was at most 30%.

Q: What about the “Concentration at which gradual cytotoxicity emerges” value [6] of the same molecule?
A: Its value is 10 µM.

Q: For `C[C@H]1[C@H](OC(=O)CCC(=O)O)O[C@@H]2O[C@@]3(C)CC[C@H]4[C@H](C)CC[C@@H]1[C@@]24OO3` [artesunate, reference compound], which “Morphology in Giemsa-stained smears” value [7] is on record?
A: Its value is “a combination of morphologically normal parasites and morphologically aberrant pyknotic or vacuolated forms”.

Q: What about the “Parasite survival (DNA replication)” value ([7]; FIG. 17B) of the same molecule?
A: The value was > 30% and ~30%.

Q: And the “Morphology in Giemsa-stained smears” value [8]?
A: Its value is “only morphologically aberrant parasites were present”.

Q: What about the Half-life in blood [9] of the same molecule?
A: The Half-life in blood was 30 to 90 min.

— US20250099488A1, “ANTI-PARASITE COMPOUNDS” (AUSTRALIAN NATIONAL UNIVERSITY, priority 2022, published 2025)
